Experimental data: US9670147B2, “Antioxidant inflammation modulators: oleanolic acid derivatives with amino and other modifications at C-17” (REATA PHARMACEUTICALS, INC., priority 2008, dated 2017)

Experiments:
HO-1 = assay: Nrf2 target gene induction in MDA-MB-435 cells, qPCR: HO-1; assay type: cell-based, human; conditions: 16 hours
Protocol: FIG. 43. Induction of HO-1. FIGS. 43A and 43B: MDA-MB-435 human melanoma cells were treated with vehicle (DMSO) or the indicated compounds and concentrations for 16 hours. HO-1 mRNA levels were quantified using qPCR and were normalized relative to a DMSO-treated sample run in parallel. Values are averages of duplicate wells. FIG. 43C: MDA-MB-435 cells were treated with vehicle (DMSO) or the indicated compounds at 400 nM for 16 hours. HO-1, TrxR1 and actin protein levels were assayed by immunoblotting. Actin served as a loading control.
(§1) FIGS. 44, 46 and 47—Induction of HO-1, TrxR1 and γ-GCS. FIGS. 44A-C, 46A-C, 47A-C: MDA-MB-435 human melanoma cells were treated with vehicle (DMSO) or the indicated compounds (400 nM) for 16 hours. HO-1, thioredoxin reductase-1 (TrxR1), and γ-glutamylcysteine synthetase (γ-GCS) mRNA levels were quantified using qPCR and were normalized relative to a DMSO-treated sample run in parallel. Values are averages of duplicate wells. FIGS. 44D, 46D, 47D: MDA-MB-435 cells were treated with vehicle (DMSO) or the indicated compounds at 400 nM for 16 hours. HO-1, TrxR1 and actin protein levels were assayed by immunoblotting.
(§2) FIG. 45. Induction of HO-1, TrxR1 and γ-GCS. FIGS. 45 A-C: MDA-MB-435 cells were treated with vehicle (DMSO) or the indicated compounds at 160 nM for 16 hours. HO-1, TrxR1, and γ-GCS mRNA levels were quantified by qPCR and were normalized relative to a DMSO-treated sample run in parallel. Values are averages of duplicate wells. FIGS. 44D, 46D, 47D: MDA-MB-435 cells were treated with vehicle (DMSO) or the indicated compounds at 160 nM for 16 hours. HO-1, TrxR1 and actin protein levels were assayed by immunoblotting.
(§3) MDA-MB-435 human melanoma cells were treated with vehicle (DMSO) or the indicated compounds and concentrations for 16 hours. HO-1, thioredoxin reductase-1 (TrxR1), γ-glutamylcysteine synthetase (γ-GCS), and ferritin heavy chain mRNA levels were quantified using qPCR and were normalized relative to a DMSO-treated sample run in parallel. Values are averages of duplicate wells. Primer sequences are as follows.

RAW264.7 macrophages = assay: Cell viability, WST-1 reagent; assay type: cell-based, mouse; conditions: Mus musculus, 2 h pre-treatment, then 20 ng/ml IFNγ for 24 hours
Protocol: (§4) FIGS. 1-34. Inhibition of NO Production. RAW264.7 macrophages were pre-treated with DMSO or drugs at various concentrations (nM) for 2 hours, then treated with 20 ng/ml IFNγ for 24 hours. NO concentration in media was determined using the Griess reagent system; cell viability was determined using WST-1 reagent. FIGS. 49-52. Inhibition of NO Production. RAW264.7 macrophages were pre-treated with DMSO or drugs at various concentrations (nM) for 2 hours, then treated with 20 ng/ml IFNγ for 24 hours. NO concentration in media was determined using the Griess reagent system; cell viability was determined using WST-1 reagent. RAW264.7 macrophages were pre-treated with DMSO or drugs for 2 hours, then treated with recombinant mouse IFNγ (Sigma) for 24 hours. NO concentration in media was determined using the Griess reagent system (Promega). Cell viability was determined using WST-1 reagent (Roche).

[1] = system: IFNγ-induced NO production in RAW264.7 macrophages; assay: Suppression of IFNγ-induced NO production (Griess reagent); assay type: cell-based, mouse; conditions: Mus musculus, 2 h pre-treatment, then 20 ng/ml IFNγ for 24 hours
Protocol: as §4

iNOS [2] = assay: iNOS Western blot in RAW264.7 mouse macrophages; assay type: cell-based; conditions: compounds at 300 nM for 2 hours, 24 hour induction by IFNγ, read-out: iNOS suppr. WB
Protocol: FIGS. 38-40. iNOS Western Blot in RAW264.7 mouse macrophages. Cells were pretreated by compounds at 300 nM for 2 hours, followed by 24 hour induction by IFNγ (20 ng/ml). […]

TrxR1 = assay: Nrf2 target gene induction in MDA-MB-435 cells, qPCR: TrxR1; assay type: cell-based, human; conditions: 16 hours
Protocol: as §1, §2, §3

iNOS [3] = assay: Suppression of iNOS mRNA induction, qPCR; assay type: cell-based, mouse; conditions: RAW264.7; 2 h pre-treatment, 10 ng/ml IFNγ for 2 hours
Protocol: FIG. 35. Suppression of iNOS mRNA induction. RAW264.7 mouse macrophages were pre-treated for 2 hours with compounds at the indicated concentrations and subsequently stimulated with 10 ng/ml IFNγ for an additional 2 hours. mRNA levels of iNOS were quantified by qPCR and are shown relative to the vehicle-treated IFNγ-stimulated sample which was normalized to a value of 1. Values are averages of duplicate PCR reactions, each with triplicate wells.
FIG. 36. Suppression of iNOS mRNA induction. RAW264.7 mouse macrophages were pre-treated for 2 hours with compounds at the indicated concentrations and subsequently stimulated with 10 ng/ml IFNγ for an additional 2 hours. mRNA levels of iNOS were quantified by qPCR and are shown relative to the vehicle-treated IFNγ-stimulated sample which was normalized to a value of 1. Values are averages of duplicate PCR reactions, each with triplicate wells.
FIG. 37. Suppression of iNOS mRNA induction. RAW264.7 mouse macrophages were pre-treated for 2 hours with compounds at the indicated concentrations and subsequently stimulated with 10 ng/ml IFNγ for an additional 2 hours. mRNA levels of iNOS were quantified by qPCR and are shown relative to the vehicle-treated IFNγ-stimulated sample which was normalized to a value of 1. Values are averages of duplicate PCR reactions, each with triplicate wells.
RAW264.7 mouse macrophage cells were pre-treated for 2 hours with compounds at the indicated concentrations and subsequently stimulated with 10 ng/ml IFNγ for an additional 2 hours. mRNA levels of iNOS were quantified by qPCR and are shown relative to the vehicle-treated IFNγ-stimulated sample which was normalized to a value of 1. Values are averages of duplicate PCR reactions, each with triplicate wells.

γ-GCS = assay: Nrf2 target gene induction in MDA-MB-435 cells, qPCR: γ-GCS; assay type: cell-based, human; conditions: 16 hours
Protocol: as §1, §2, §3

COC(=O)N[C@]12CCC(C)(C)C[C@H]1[C@H]1C(=O)C=C3[C@@]4(C)C=C(C#N)C(=O)C(C)(C)[C@@H]4CC[C@@]3(C)[C@]1(C)CC2 [Compound 63167, methyl-(4aS,6aR,6bS,8aR,12aS,14aR,14bS)-11-cyano-2,2,6a,6b,9,9,12a-heptamethyl-10,14-dioxo-1,2,3,4,4a,5,6,6a,6b,7,8,8a,9,10,12a,14,14a,14b-octadecahydropicen-4a-ylcarbamate]
HO-1 induction (HO-1; 400 nM): 61% of induction observed for RTA 402
IC50 (RAW264.7 macrophages): 180 nM
IC50 [1]: 2 nM
inhibition at 0.3 µM (iNOS [2]): ~90%
TrxR1 induction (TrxR1; 400 nM): 62% of induction observed for RTA 402
iNOS suppr. qPCR (iNOS [3]): ~50%

CC1(C)CC[C@]2(N)CC[C@]3(C)[C@H](C(=O)C=C4[C@@]5(C)C=C(C#N)C(=O)C(C)(C)[C@@H]5CC[C@]43C)[C@@H]2C1 [Compound 63169, (4aR,6aS,6bR,8aS,12aS,12bR,14bS)-8a-amino-4,4,6a,6b,11,11,14b-heptamethyl-3,13-dioxo-3,4,4a,5,6,6a,6b,7,8,8a,9,10,11,12,12a,12b,13,14b-octadecahydropicene-2-carbonitrile]
HO-1 induction (HO-1; 160 nM): 2% of induction observed for RTA 402
IC50 (RAW264.7 macrophages): > 200 nM
γ-GCS induction (γ-GCS; 160 nM): 73% of induction observed for RTA 402
IC50 [1]: 3.6 nM
inhibition at 0.3 µM (iNOS [2]): ~90%
TrxR1 induction (TrxR1; 160 nM): 129% of induction observed for RTA 402
iNOS suppr. qPCR (iNOS [3]): ~50%

CC1(C)CC[C@]2(NS(C)(=O)=O)CC[C@]3(C)[C@H](C(=O)C=C4[C@@]5(C)C=C(C#N)C(=O)C(C)(C)[C@@H]5CC[C@]43C)[C@@H]2C1 [Compound 63175, N-((4aS,6aR,6bS,8aR,12aS,14aR,14bS)-11-cyano-2,2,6a,6b,9,9,12a-heptamethyl-10,14-dioxo-1,2,3,4,4a,5,6,6a,6b,7,8,8a,9,10,12a,14,14a,14b-octadecahydropicen-4a-yl)methanesulfonamide]
HO-1 induction (HO-1; 160 nM): 15% of induction observed for RTA 402
HO-1 induction (HO-1; 400 nM): 10% of induction observed for RTA 402
IC50 (RAW264.7 macrophages): 200 nM
γ-GCS induction (γ-GCS; 160 nM): 64% of induction observed for RTA 402
IC50 [1]: 2 nM
inhibition at 0.3 µM (iNOS [2]): ~90%
TrxR1 induction (TrxR1; 160 nM): 86% of induction observed for RTA 402
TrxR1 induction (TrxR1; 400 nM): 48% of induction observed for RTA 402
iNOS suppr. qPCR (iNOS [3]): ~65%

C=CC(=O)N[C@]12CCC(C)(C)C[C@H]1[C@H]1C(=O)C=C3[C@@]4(C)C=C(C#N)C(=O)C(C)(C)[C@@H]4CC[C@@]3(C)[C@]1(C)CC2 [Compound 63183, N-((4aS,6aR,6bS,8aR,12aS,14aR,14bS)-11-cyano-2,2,6a,6b,9,9,12a-heptamethyl-10,14-dioxo-1,2,3,4,4a,5,6,6a,6b,7,8,8a,9,10,12a,14,14a,14b-octadecahydropicen-4a-yl)acrylamide]
HO-1 induction (HO-1; 160 nM): 28% of induction observed for RTA 402
IC50 (RAW264.7 macrophages): 150 nM
γ-GCS induction (γ-GCS; 160 nM): 55% of induction observed for RTA 402
IC50 [1]: 4 nM
inhibition at 0.3 µM (iNOS [2]): ~90%
TrxR1 induction (TrxR1; 160 nM): 71% of induction observed for RTA 402
iNOS suppr. qPCR (iNOS [3]): 50%

CC1(C)CC[C@]2(NC(=O)N3CCC(O)CC3)CC[C@]3(C)[C@H](C(=O)C=C4[C@@]5(C)C=C(C#N)C(=O)C(C)(C)[C@@H]5CC[C@]43C)[C@@H]2C1 [Compound 63185, N-((4aS,6aR,6bS,8aR,12aS,14aR,14bS)-11-cyano-2,2,6a,6b,9,9,12a-heptamethyl-10,14-dioxo-1,2,3,4,4a,5,6,6a,6b,7,8,8a,9,10,12a,14,14a,14b-octadecahydropicen-4a-yl)-4-hydroxypiperidine-1-carboxamide]
HO-1 induction (HO-1; 160 nM): 1% of induction observed for RTA 402
IC50 (RAW264.7 macrophages): > 200 nM
γ-GCS induction (γ-GCS; 160 nM): 27% of induction observed for RTA 402
IC50 [1]: 91 nM
inhibition at 0.3 µM (iNOS [2]): 0%
TrxR1 induction (TrxR1; 160 nM): 71% of induction observed for RTA 402
iNOS suppr. qPCR (iNOS [3]): 0%

CC1(C)CC[C@]2(NS(=O)(=O)c3ccccc3)CC[C@]3(C)[C@H](C(=O)C=C4[C@@]5(C)C=C(C#N)C(=O)C(C)(C)[C@@H]5CC[C@]43C)[C@@H]2C1 [Compound 63192, N-((4aS,6aR,6bS,8aR,12aS,14aR,14bS)-11-cyano-2,2,6a,6b,9,9,12a-heptamethyl-10,14-dioxo-1,2,3,4,4a,5,6,6a,6b,7,8,8a,9,10,12a,14,14a,14b-octadecahydropicen-4a-yl)benzenesulfonamide]
HO-1 induction (HO-1; 160 nM): 1% of induction observed for RTA 402
IC50 (RAW264.7 macrophages): 150 nM
γ-GCS induction (γ-GCS; 160 nM): 9% of induction observed for RTA 402
IC50 [1]: 2.8 nM
inhibition at 0.3 µM (iNOS [2]): > 90%
TrxR1 induction (TrxR1; 160 nM): 14% of induction observed for RTA 402
iNOS suppr. qPCR (iNOS [3]): ~60%

CC1(C)CC[C@]2(NS(=O)(=O)CC(F)(F)F)CC[C@]3(C)[C@H](C(=O)C=C4[C@@]5(C)C=C(C#N)C(=O)C(C)(C)[C@@H]5CC[C@]43C)[C@@H]2C1 [Compound 63247, N-((4aS,6aR,6bS,8aR,12aS,14aR,14bS)-11-cyano-2,2,6a,6b,9,9,12a-heptamethyl-10,14-dioxo-1,2,3,4,4a,5,6,6a,6b,7,8,8a,9,10,12a,14,14a,14b-octadecahydropicen-4a-yl)-2,2,2-trifluoroethanesulfonamide]
HO-1 induction (HO-1; 400 nM): 19% of induction observed for RTA 402
IC50 (RAW264.7 macrophages): 150 nM
γ-GCS induction (γ-GCS; 400 nM): 75% of induction observed for RTA 402
IC50 [1]: ~2 nM
inhibition at 0.3 µM (iNOS [2]): > 90%
TrxR1 induction (TrxR1; 400 nM): 76% of induction observed for RTA 402
